Measurements from paper PMC7311426, “An amphipathic peptide with antibiotic activity against multidrug-resistant Gram-negative bacteria” (Nature Communications, 2020).
Values after ≈ are worked out from the molar mass of the structure shown. Like-named read-outs stand apart in the source and are kept apart here. Residues, ends and D or L forms follow the SMILES beside them.

Assays:
[1] = tested on: A. baumannii; assay: microbe, parasite or virus in culture
Experimental: (§1) Antimicrobial activity of arenicin-3 and its analogs was tested against a panel of bacterial and yeast strains by in vitro broth microdilution (BMD) assay with minimum inhibitory concentration (MIC) determination. Strains were purchased from American Type Culture Collection (ATCC) or obtained from clinical collaborators (full strain profiles provided in Supplementary Data 3). All peptides were prepared in Ringer’s acetate solution, and subsequently diluted fresh in water for each independent assay.
(§2) Assays were performed in Mueller Hinton broth (MHB; BD, Cat. No. 211443) for bacteria, and yeast extract-peptone dextrose (YPD; Sigma-Aldrich, Y1500) for yeast. The concentrations of the peptides and comparator antibiotics/antifungals in the assay wells ranged from either 128 or 64 μg mL^−1, to 0.06 or 0.03 μg mL^−1 as a 12-point dose response plated as a 2-fold dilution series across the wells of the plate in duplicate for each independent biological replicate, using a final cell density of 5 × 10^5 CFU mL^−1 and 2.5 × 10^3 CFU mL^−1 for bacteria and yeast respectively. Final assay volumes were 100 μL per well with MICs determined visually following 18-20 h incubation at 37 °C for bacteria, 24 h incubation at 35 °C for Candida albicans, and 24 h incubation at 35 °C with resazurin addition (0.006%; Sigma-Aldrich, Cat # R7017) for a further 3 h for Cryptococcus neoformans, without shaking. Additional bacterial and yeast susceptibility assays were performed in Cation-Adjusted Mueller Hinton Broth (CAMHB; BD, Cat No. 212322) and Roswell Park Memorial Institute (RPMI) 1640 culture medium (Life Technologies Australia, Cat No. 21870092), respectively, as recommended by CLSI guidelines (M07 11th ed[36] and M27 4th ed[37]). […] Agarose MICs were determined in MHB with 1% agarose (Bioline molecular grade; Cat no: BIO-41025; high purity, high gel strength). All experiments were performed a minimum of six replicates (n ≥ 6).

[2] = tested on: E. coli; assay: microbe, parasite or virus in culture
Experimental: as §1, §2

[3] = tested on: K. pneumoniae; assay: microbe, parasite or virus in culture
Experimental: as §1, §2

[4] = tested on: P. aeruginosa; assay: microbe, parasite or virus in culture
Experimental: as §1, §2

[5] = tested on: S. aureus; assay: microbe, parasite or virus in culture
Experimental: as §1, §2

[6] = tested on: C. albicans; assay: microbe, parasite or virus in culture; settings: 24 h
Experimental: as §1, §2

[7] = in vitro; settings: human
Experimental: (§3) HEK-293 human embryonic kidney cells (ATCC CRL-1573), HepG2 liver hepatocellular carcinoma cells (ATCC HB-8065), and HK-2 human kidney proximal tubule cells (ATCC CRL-2190) cell lines were purchased from ATCC. Cytotoxicity of arenicin-3 variants was determined using the Alamar Blue (resazurin; Sigma-Aldrich, Cat # R7017), with 1% FBS for HK-2 and 10% FBS for HEK-293, and HepG2[40]. Cells were seeded as 2000 cells per well in black wall clear bottom 384-well plates (Corning®, Costar®, Cat # 3712). The cells were incubated for 24 h at 37 °C, 5% CO2. Then peptides were added into each cell containing well. After 24 h incubation, 5 μM resazurin were added per well and incubated at 37 °C for 2 h. Then the fluorescence intensity (FI) was read using a Polarstar® Omega plate reader with excitation/emission 560/590 and CC50 values were determined using Prism 8 following curve fitting and applying the following equation: Percentageviability = (FITEST-FINegative/FIUNTREATED-FINegative)×100.
(§4) Hemolytic activity was measured against isolated human erythrocytes from anonymously donated fresh human blood. Isolated erythrocytes were adjusted to 1 × 10^9 blood cells mL^−1 in phosphate-buffered saline (PBS, pH 7.4), added to the wells of NUNC polypropylene round-bottom 96-well plates (Sigma-Aldrich, Cat # P6866) then up to 300 μg mL^−1 of compound was added per well and incubated for 3 h at 37 °C. Following incubation, samples were centrifuged at 3000 rpm for 20 min, and the supernatants, 100 μL, were carefully collected for measurement. The degree of hemolysis in the samples was determined by measurement of the absorption of the supernatants at 540 nm using the Polarstar-Omega plate reader. 1% Triton-X100 was used as positive control for inducing 100% hemolysis. HC10 and HC50 values were determined using Prism 8 following curve fitting. The use of human blood (sourced from the Australian Red Cross Blood Service) for hemolysis assays was approved by the University of Queensland Institutional Human Research Ethics Committee, Approval Number 2014000031. All in vitro toxicity assays were performed for two independent biological replicates as an 8-point dose response of 3-fold dilution series in triplicate with the highest test concentration of 300 μg mL^−1.

[8] = tested on: HEK-293 human embryonic kidney cells; assay: in vitro
Experimental: as §3, §4

[9] = tested on: HK-2 human kidney proximal tubule cells; assay: in vitro
Experimental: as §3, §4

[10] = tested on: HepG2 liver hepatocellular carcinoma cells; assay: in vitro
Experimental: as §3, §4

[11] = tested on: human erythrocytes (HRBC); type: cell-based
[12] = tested on: E. coli ATCC 25922; assay: microbe, parasite or virus in culture; type: cell-based, Escherichia coli; settings: ATCC 25922
Experimental: Assays were performed in Mueller Hinton broth (MHB; BD, Cat. No. 211443) for bacteria, and yeast extract-peptone dextrose (YPD; Sigma-Aldrich, Y1500) for yeast. The concentrations of the peptides and comparator antibiotics/antifungals in the assay wells ranged from either 128 or 64 μg mL^−1, to 0.06 or 0.03 μg mL^−1 as a 12-point dose response plated as a 2-fold dilution series across the wells of the plate in duplicate for each independent biological replicate, using a final cell density of 5 × 10^5 CFU mL^−1 and 2.5 × 10^3 CFU mL^−1 for bacteria and yeast respectively. Final assay volumes were 100 μL per well with MICs determined visually following 18-20 h incubation at 37 °C for bacteria, 24 h incubation at 35 °C for Candida albicans, and 24 h incubation at 35 °C with resazurin addition (0.006%; Sigma-Aldrich, Cat # R7017) for a further 3 h for Cryptococcus neoformans, without shaking. Additional bacterial and yeast susceptibility assays were performed in Cation-Adjusted Mueller Hinton Broth (CAMHB; BD, Cat No. 212322) and Roswell Park Memorial Institute (RPMI) 1640 culture medium (Life Technologies Australia, Cat No. 21870092), respectively, as recommended by CLSI guidelines (M07 11th ed[36] and M27 4th ed[37]). […] However, for yeast it was determined that the YPD media was more reliable and robust between repeats and therefore MICs in this media are reported. […] Agarose MICs were determined in MHB with 1% agarose (Bioline molecular grade; Cat no: BIO-41025; high purity, high gel strength). All experiments were performed a minimum of six replicates (n ≥ 6).

[13] = A. baumannii ATCC 19636 type strain, MHB, mode of 6 replicates
[14] = E. coli ATCC 25922 FDA control strain, MHB, mode of 6 independent biological replicates
[15] = K. pneumoniae ATCC 13883 type strain (polymyxin/colistin heteroresistant), MHB, mode of 6 replicates
[16] = P. aeruginosa ATCC 27853 control strain, MHB, mode of 6 replicates
[17] = S. aureus ATCC 25923 MSSA, MHB, mode of 6 replicates

Compound	BMD MIC [1, 13] [µg/mL]	BMD MIC [2, 14] [µg/mL]	BMD MIC [3, 15] [µg/mL]	BMD MIC [4, 16] [µg/mL]	BMD MIC [5, 17] [µg/mL]	BMD MIC [1] [µg/mL]	BMD MIC [6] [µg/mL]	BMD MIC [3] [µg/mL]	BMD MIC [4] [µg/mL]	BMD MIC [5] [µg/mL]	CC50 at 24 h ([7]; HEK-293 cells) [µg/mL]	CC50 at 24 h ([7]; HK-2 cells) [µg/mL]	CC50 at 24 h ([7]; HepG2 cells) [µg/mL]	CC50 HEK293, Mean [8] [µg/mL]	CC50 HK2 [9] [µg/mL]	CC50 HK2, Mean [9] [µg/mL]	CC50 HepG2 [10] [µg/mL]	CC50 HepG2, Mean [10] [µg/mL]	Heamolysis HC10, Mean [11] [µg/mL]	also measured
CC(C)[C@@H]1NC(=O)[C@H](Cc2ccc(O)cc2)NC(=O)[C@H](Cc2c[nH]c3ccccc23)NC(=O)[C@@H](NC(=O)CN)CSSC[C@@H](C(=O)N[C@@H](CC(N)=O)C(=O)O)NC(=O)[C@H](CCCNC(=N)N)NC(=O)[C@H](CCCNC(=N)N)NC(=O)[C@H](Cc2ccc(O)cc2)NC(=O)[C@@H]2CSSC[C@H](NC1=O)C(=O)N[C@@H](C)C(=O)N[C@@H](CCCNC(=N)N)C(=O)N[C@@H](CCCNC(=N)N)C(=O)N[C@@H](CC(N)=O)C(=O)NCC(=O)N[C@@H](C)C(=O)N[C@@H](CCCNC(=N)N)C(=O)N[C@@H](C(C)C)C(=O)N2 [AB0016] (HELM PEPTIDE1{G.C.W.Y.V.C.A.R.R.N.G.A.R.V.C.Y.R.R.C.N}$PEPTIDE1,PEPTIDE1,2:R3-19:R3|PEPTIDE1,PEPTIDE1,6:R3-15:R3$$$V2.0)	1	1	2	1	>64															
CC(C)C[C@@H]1NC(=O)CNC(=O)[C@H](CC(N)=O)NC(=O)[C@H](CCCNC(=N)N)NC(=O)[C@H](CCCCN)NC(=O)[C@H](C)NC(=O)[C@@H]2CSSC[C@H](NC(=O)[C@H](C(C)C)NC(=O)[C@H](CCCNC(=N)N)NC1=O)C(=O)N[C@@H](Cc1ccc(O)cc1)C(=O)N[C@@H](CCCNC(=N)N)C(=O)N[C@@H](CCCNC(=N)N)C(=O)N[C@H](C(=O)N[C@@H](CC(N)=O)C(=O)O)CSSC[C@H](NC(=O)[C@H](Cc1ccccc1)NC(=O)CN)C(=O)N[C@@H](Cc1c[nH]c3ccccc13)C(=O)N[C@@H](Cc1ccc(O)cc1)C(=O)N[C@@H](C)C(=O)N2 [NZ17126] (HELM PEPTIDE1{G.F.C.W.Y.A.C.A.K.R.N.G.L.R.V.C.Y.R.R.C.N}$PEPTIDE1,PEPTIDE1,3:R3-20:R3|PEPTIDE1,PEPTIDE1,7:R3-16:R3$$$V2.0)						1	>64	0.25	0.25	32	> 300	> 250	> 300	>300	>254	>250	>300	>300	232	BMD MIC [2]: 0.125 µg/mL; CC50 HEK293 [8]: >300 µg/mL
CC(C)[C@@H]1NC(=O)CNC(=O)[C@H](CC(N)=O)NC(=O)[C@H](CCCNC(=N)N)NC(=O)[C@H](Cc2ccc(O)cc2)NC(=O)[C@H](C(C)C)NC(=O)[C@@H]2CSSC[C@H](NC(=O)[C@H](C(C)C)NC(=O)[C@H](CCCNC(=N)N)NC1=O)C(=O)N[C@@H](Cc1ccc(O)cc1)C(=O)N[C@@H](CCCNC(=N)N)C(=O)N[C@@H](CCCNC(=N)N)C(=O)N[C@H](C(=O)N[C@@H](CC(N)=O)C(=O)O)CSSC[C@H](NC(=O)[C@H](Cc1ccccc1)NC(=O)CN)C(=O)N[C@@H](Cc1c[nH]c3ccccc13)C(=O)N[C@@H](CCCNC(=N)N)C(=O)N[C@@H](C)C(=O)N2 [NZ17230] (HELM PEPTIDE1{G.F.C.W.R.A.C.V.Y.R.N.G.V.R.V.C.Y.R.R.C.N}$PEPTIDE1,PEPTIDE1,3:R3-20:R3|PEPTIDE1,PEPTIDE1,7:R3-16:R3$$$V2.0)						0.5	64	0.25	0.25	64	223 (≈ 86.5 µM)	> 250	> 300	223 (≈ 86.5 µM)	>258	>250	>300	>300	>300	MIC, MHB [12]: 0.25 µg/mL (≈ 0.097 µM); Heamolysis HC10 ([11]; red cells of human, 3 h): >300 µg/mL
CC(C)[C@@H]1NC(=O)[C@H](Cc2ccc(O)cc2)NC(=O)[C@H](Cc2c[nH]c3ccccc23)NC(=O)[C@@H](NC(=O)[C@H](Cc2ccccc2)NC(=O)CN)CSSC[C@@H](C(N)=O)NC(=O)[C@H](CCCNC(=N)N)NC(=O)[C@H](CCCNC(=N)N)NC(=O)[C@H](Cc2ccc(O)cc2)NC(=O)[C@@H]2CSSC[C@H](NC1=O)C(=O)N[C@@H](C)C(=O)N[C@@H](CCCNC(=N)N)C(=O)N[C@@H](CCCNC(=N)N)C(=O)N[C@@H](CC(N)=O)C(=O)NCC(=O)N[C@@H](C)C(=O)N[C@@H](CCCNC(=N)N)C(=O)N[C@@H](C(C)C)C(=O)N2 [AB0017] (HELM PEPTIDE1{G.F.C.W.Y.V.C.A.R.R.N.G.A.R.V.C.Y.R.R.C.[am]}$PEPTIDE1,PEPTIDE1,3:R3-20:R3|PEPTIDE1,PEPTIDE1,7:R3-16:R3$$$V2.0)	1	0.5	0.125	0.25	64															
